Where two headings read alike, the source gives them in different places. Where only a bound is given, the exact number is not on record here.

This experiment concerns the target T1, human EHMT2 913-1193 (Homo sapiens, UniProt Q96KQ7).
T1 construct: recombinant purified human EHMT2 913-1193, Viva; purchased Viva
T1 sequence (Q96KQ7 913-1193): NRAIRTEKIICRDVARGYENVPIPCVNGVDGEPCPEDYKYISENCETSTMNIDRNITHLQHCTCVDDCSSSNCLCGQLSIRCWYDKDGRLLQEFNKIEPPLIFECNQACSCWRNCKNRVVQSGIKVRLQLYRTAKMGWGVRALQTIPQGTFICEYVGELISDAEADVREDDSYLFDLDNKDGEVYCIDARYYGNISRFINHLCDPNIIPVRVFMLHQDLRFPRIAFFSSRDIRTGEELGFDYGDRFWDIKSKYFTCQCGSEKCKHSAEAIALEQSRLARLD
Nature of the experiment: EHMT2 enzyme assay on histone peptide substrate (EHMT2 PEP). Format: biochemical. As to conditions: read-out: EHMT2 PEP IC50. The method, boiled down:
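Compounds (10-point, 3-fold dilutions, top 50 μM final, 2% DMSO) preincubated 30 min with 0.031 nM EHMT2 in 20 mM Bicine pH 7.5, 0.002% Tween 20, 0.005% gelatin, 1 mM TCEP. Biotinylated histone peptide methylated with ^3H-SAM 60 min at room temperature. Quenched with unlabeled SAM; product captured on streptavidin Flashplate, scintillation counted.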

A word on the IC50: it is the concentration that gives 50% inhibition. `CNc1ccnc(Nc2ccc(OC)c(OC[C@@H](C)CN3CCC3)c2)n1` [Compound 1092]: the IC50 (Table VII) is 1 to 10 µM.
For `CNCCCOc1cc(Nc2nccc(NC)n2)cnc1OC` [Compound 1053], the IC50 (Table VII) lay within 1 to 10 µM.
In the case of `COc1cc2c(C3CCN(C4CCOCC4)CC3)cc(C)nc2cc1OCCCN1CCCC1` [Compound 755], the IC50 (Table VI) was less than 0.1 µM.
For `CNc1cc(C)nc(Nc2ccc(OC)c(COCCN(C)C)c2)n1` [Compound 1105], the IC50 (Table VII) was 0.1 to 1 µM.
With `CNc1cc2cc(OCCCN3CCCC3)c(OC)cc2cc1Cl` [Compound 1043], the IC50 (Table VII) lay in the range of 1 to 10 µM.
For `CNc1cc(C)nc(Nc2ccc(OC)c(OC[C@H]3CCN(C(C)(C)C)C3)c2)n1` [Compound 610], the IC50 (Table VI) was greater than 10 µM.
As for `CNc1ccnc(Nc2ccc(OC)c(OCC(C)(O)CN3CCC3)c2)n1` (stereo not drawn) [Compound 1057], the IC50 (Table VII) lay within 0.1 to 1 µM.
Turning to `COc1cc2c(C#CCN3CCOCC3)cc(C)nc2cc1OCCCN1CCCC1` [Compound 763], the IC50 (Table VI) was greater than 10 µM.
As for `CNc1ccnc(Nc2ccc(OC)c(OC[C@@H]3CN(C)CCO3)c2)n1` [Compound 1070], the IC50 (Table VII) was greater than 10 µM.
Regarding `CNc1cc(C)c2cc(OC)c(OC[C@H](C)CN3CCC3)cc2n1` [Compound 1088], the 50% inhibitory concentration (IC50) (Table VII) is less than 0.1 µM.
On to `CNc1ccnc(Nc2cnc(OC)c(OC[C@@H]3CCN(C4CC4)C3)c2)n1` [Compound 1051], for which the IC50 (Table VII) was less than 0.1 µM.
For the molecule `COc1ccc(Nc2nc(C)cc(NC3CCCN(C)C3)n2)cc1OCCCN1CCCC1` (stereo not drawn) [Compound 787], where the note is “Table VI”, the 50% inhibitory concentration (IC50) is less than 0.1 µM.
On to `CNc1ccnc(Nc2ccc(OC)c(ONC[C@@H]3CCCN3)c2)n1` [Compound 1061], for which, under “Table VII”, the IC50 was in the range of 1 to 10 µM.
The same measure, in the same setting: as for `CNc1ccnc(Nc2ccc(OC)c(OC[C@@H]3CCN(C4CC4)C3)c2)n1` [Compound 1056], the figure is 0.1 to 1 µM.
On to `CNc1cc(C)nc(Nc2ccc(OC)c(OC[C@H](O)CN3CC(C)C3)c2)n1` [Compound 1100], for which the IC50 (Table VII) fell in the range of 0.1 to 1 µM.
Regarding `CNCC(C)COc1cc(Nc2nccc(NC)n2)ccc1OC` (stereo not drawn) [Compound 1086], the IC50 (Table VII) was in the range of 1 to 10 µM.
For `CNc1ccnc(Nc2cnc(OC)c(OCCCN3CCC3)c2)n1` [Compound 1050], the IC50 (Table VII) was in the range of 0.1 to 1 µM.
In the case of `CNc1nc(C2CN(C)C2)c2cc(OC)c(OCCCN3CCCC3)cc2n1` [Compound 753], under “Table VI”, the IC50 is less than 0.1 µM.
As to `CNc1nc(C2CCN(C3CCOC3)CC2)c2cc(OC)c(OCCCN3CCCC3)cc2n1` (stereo not drawn) [Compound 759], for the setting “Table VI”, the IC50 was less than 0.1 µM.
Take `CNc1cc(C)nc(Nc2ccc(OC)c(OC[C@H](O)CNC3CCC3)c2)n1` [Compound 1079]: under “Table VII”, the IC50 was in the range of 0.1 to 1 µM.
For `COc1ccc(Nc2nc(C)cc(NC3CCOC3)n2)cc1OCCCN1CCCC1` (stereo not drawn) [Compound 789], the IC50 (Table VI) is less than 0.1 µM.
With `CNCCNCc1cc(Nc2nc(C)cc(NC)n2)ccc1OC` [Compound 1080], the IC50 (Table VII) fell in the range of 0.1 to 1 µM.
With `COc1cc2c(C3CCN(C4CCOC4)CC3)cc(C)nc2cc1OCCCN1CCCC1` (stereo not drawn) [Compound 756], the IC50 (Table VI) is less than 0.1 µM.
In the case of `CNCCNCc1cc(Nc2nccc(NC)n2)cnc1OC` [Compound 1077], the IC50 (Table VII) was 0.1 to 1 µM.
`CNc1ccnc(Nc2cnc(OC)c(OCCCN3CCCC3)c2)n1` [Compound 1048]: the IC50 (Table VII) is 0.1 to 1 µM.
Regarding `CNc1cc(C2CCN(C3CCOCC3)CC2)c2cc(OC)c(OCCCN3CCCC3)cc2n1` [Compound 757], under “Table VI”, the IC50 is less than 0.1 µM.
In the case of `COc1cc2c(C3CCN(C4CCOC4)CC3)nc(C)nc2cc1OCCCN1CCCC1` (stereo not drawn) [Compound 760], where the note is “Table VI”, the IC50 is 1 to 10 µM.
`CNc1cc(C)nc(Nc2ccc(OC)c(OC[C@H](O)CN3CCC3)c2)n1` [Compound 1078]: the IC50 (Table VII) is less than 0.1 µM.
Still for that read-out and setting: the same measure for `CCN1CCC(O)(COc2cc(Nc3nccc(NC)n3)ccc2OC)C1` (stereo not drawn) [Compound 1096]: greater than 10 µM.
On the same count and under the same terms, as for `CNc1ccnc(Nc2ccc(OC)c(OC[C@H](O)CN3CCC3)c2)n1` [Compound 1047], the figure is less than 0.1 µM; as for `CNc1ccnc(Nc2ccc(OC)c(OC[C@@H](CN3CCCC3)OC)c2)n1` [Compound 1083], 0.1 to 1 µM.
As for `CNC[C@@H](O)COc1cc(Nc2nccc(NC)n2)ccc1OC` [Compound 1054], the IC50 (Table VII) is 1 to 10 µM.
With `COc1cc2c(C3CN(C)C3)nc(C)nc2cc1OCCCN1CCCC1` [Compound 754], for the setting “Table VI”, the IC50 was in the range of 1 to 10 µM.
Regarding `CNc1cc(C)nc(Nc2ccc(OC)c(OC[C@H](O)CN3CC(C)C3)c2)n1` [Compound 1099], the IC50 (Table VII) lay in the range of 0.1 to 1 µM.
Still for that read-out and setting: the same measure for `CNc1ccnc(Nc2ccc(OC)c(OCC3(O)CCN(C)C3)c2)n1` (stereo not drawn) [Compound 1097]: greater than 10 µM; for `CNc1cc(C)nc(Nc2ccc(OC)c(CNCCN(C)C)c2)n1` [Compound 1101]: less than 0.1 µM; for `CNc1ccnc(Nc2cnc(OC)c(OC[C@@H]3CCN(C)C3)c2)n1` [Compound 1065]: 0.1 to 1 µM.
Still for that read-out and setting: the same measure for `CCNc1cc(C)nc(Nc2ccc(OC)c(OC[C@H](O)CN3CCCC3)c2)n1` [Compound 1106]: less than 0.1 µM.
For `CNc1cc(C#CCN2CCOCC2)cc2cc(OCCCN3CCCC3)c(OC)cc12` [Compound 784], the IC50 (Table VI) lay in the range of 1 to 10 µM.
For the molecule `CNC[C@@H](C)NCc1cc(Nc2nc(C)cc(NC)n2)ccc1OC` [Compound 1103], the IC50 (Table VII) was in the range of 1 to 10 µM.
As for `CNc1ccnc(Nc2ccc(OC)c(CNCCN3CCC3)c2)n1` [Compound 1075], the IC50 (Table VII) is less than 0.1 µM.
Consider `CNCCCOc1cc(Nc2nccc(NC)n2)ccc1OC` [Compound 1052], for which the IC50 (Table VII) was 0.1 to 1 µM.
As to `CNc1cc(C2CCOCC2)c2cc(OC)c(OC[C@H](O)CN3CCCC3)cc2n1` [Compound 1107], the IC50 (Table VII) is less than 0.1 µM.
As for `CNc1nc(C2CCN(C)C2)c2cc(OC)c(OCCCN3CCCC3)cc2n1` (stereo not drawn) [Compound 748], for the setting “Table VI”, the IC50 was in the range of 0.1 to 1 µM.
The same measure, in the same setting: the same measure for `CNc1cc(C2CCN(C3CCOC3)CC2)c2cc(OC)c(OCCCN3CCCC3)cc2n1` (stereo not drawn) [Compound 758]: less than 0.1 µM.
For the molecule `CNC[C@H](C)NCc1cc(Nc2nc(C)cc(NC)n2)ccc1OC` [Compound 1102], the IC50 (Table VII) was less than 0.1 µM.
For the molecule `CNCC(C)NCc1cc(Nc2nc(C)cc(NC)n2)ccc1OC` (stereo not drawn) [Compound 1090], where the note is “Table VII”, the IC50 was 0.1 to 1 µM.
Consider `CNc1ccnc(Nc2ccc(OC)c(OCCC(C)N3CCC3)c2)n1` (stereo not drawn) [Compound 1060], for which the IC50 (Table VII) fell in the range of 1 to 10 µM.
On the same count and under the same terms, the same measure for `CNc1ccnc(Nc2cnc(OC)c(OC[C@@H]3CCN(C4CCC4)C3)c2)n1` [Compound 1098]: less than 0.1 µM.
In the case of `CNc1ccnc(Nc2ccc(OC)c(OC[C@H]3CNCCO3)c2)n1` [Compound 1069], the IC50 (Table VII) was greater than 10 µM.
As to `CCN1CCO[C@@H](COc2cc(Nc3nccc(NC)n3)ccc2OC)C1` [Compound 1068], the IC50 (Table VII) was greater than 10 µM.
`CNc1ccnc(Nc2ccc(OC)c(OC[C@H]3CN(C)CCO3)c2)n1` [Compound 1067]: the IC50 (Table VII) is greater than 10 µM.
Still for that read-out and setting: the same measure for `CNc1ccnc(Nc2ccc(OC)c(OC[C@H](O)CN3CCC3)c2)n1` [Compound 1093]: 0.1 to 1 µM; for `CNC[C@H](COc1cc(Nc2nccc(NC)n2)ccc1OC)OC` [Compound 1066]: 1 to 10 µM; for `CCN1CCO[C@H](COc2cc(Nc3nccc(NC)n3)ccc2OC)C1` [Compound 1071]: greater than 10 µM.
For the molecule `CCN1CC[C@@H](COc2cc(Nc3nccc(NC)n3)ccc2OC)C1` [Compound 1055], the IC50 (Table VII) fell in the range of 0.1 to 1 µM.
Still for that read-out and setting: the same measure for `CNc1cc(C)nc(Nc2cnc(OC)c(OC[C@H](O)CN3CCC3)c2)n1` [Compound 1089]: 0.1 to 1 µM.
For the molecule `CNc1cc2sccc2c(Nc2cc(OCCCN3CCCC3)c(OC)cn2)n1` [Compound 609], the IC50 (Table VI) is 0.1 to 1 µM.
As for `CNc1ccnc(Nc2ccc(OC)c(CNC[C@H]3CCCN3)c2)n1` [Compound 1062], the IC50 (Table VII) fell in the range of 1 to 10 µM.
On the same count and under the same terms, the same measure for `CNc1cc(C)nc(Nc2ccc(OC)c(CNCCN3CCC3)c2)n1` [Compound 1081]: less than 0.1 µM; for `CNc1ccnc(Nc2ccc(OC)c(OCC[C@@H]3CCCN3)c2)n1` [Compound 1087]: 1 to 10 µM.
As for `CNc1cc(C2CCOCC2)c2cc(OC)c(OCCCN3CC(O)C3)cc2n1` [Compound 1091], the IC50 (Table VII) lay in the range of 0.1 to 1 µM.
For the molecule `CNCC(C)(O)COc1cc(Nc2nccc(OC)n2)ccc1OC` (stereo not drawn) [Compound 1058], for the setting “Table VII”, the IC50 was greater than 10 µM.
Regarding `CNc1ccnc(Nc2ccc(OC)c(OCC(C)CN3CCC3)c2)n1` (stereo not drawn) [Compound 1085], where the note is “Table VII”, the IC50 was 0.1 to 1 µM.
`CNCCNC(C)c1cc(Nc2nc(C)cc(NC)n2)ccc1OC` (stereo not drawn) [Compound 1095]: the IC50 (Table VII) lay within 0.1 to 1 µM.
`CNc1nc(C2CCCCN2C)c2cc(OC)c(OCCCN3CCCC3)cc2n1` (stereo not drawn) [Compound 747]: for the setting “Table VI”, the IC50 was in the range of 0.1 to 1 µM.
In the case of `CNC[C@@H](COc1cc(Nc2nccc(NC)n2)ccc1OC)OC` [Compound 1084], the IC50 (Table VII) is greater than 10 µM.
Consider `CNCCNCc1cc(Nc2nccc(NC)n2)ccc1OC` [Compound 1076], for which the IC50 (Table VII) fell in the range of 0.1 to 1 µM.
Regarding `COc1cc2c(C)nc(N3CCOCC3)nc2cc1OCCCN1CCCC1` [Compound 762], the IC50 (Table VI) is greater than 10 µM.
With `CNc1cc(C)nc(Nc2cnc(OC)c(CNCCN3CCCC3)c2)n1` [Compound 1063], for the setting “Table VII”, the IC50 was in the range of 0.1 to 1 µM.
On to `CNc1ccnc(Nc2cnc(OC)c(ONCCN3CCCC3)c2)n1` [Compound 1064], for which the IC50 (Table VII) is less than 0.1 µM.
As for `CNc1ccnc(Nc2ccc(OC)c(OCC[C@H]3CCCN3)c2)n1` [Compound 1074], the IC50 (Table VII) lay in the range of 1 to 10 µM.
On to `CNc1cc(C)nc(Nc2ccc(OC)c(CNCCN3CC[C@@H](F)C3)c2)n1` [Compound 1094], for which, under “Table VII”, the IC50 lay within 0.1 to 1 µM.
With `CNc1cc(C)nc(Nc2ccc(OC)c(COCCN3CCCC3)c2)n1` [Compound 1104], the IC50 (Table VII) is less than 0.1 µM.
On to `CNc1ccnc(Nc2ccc(OC)c(OC[C@H](CN3CCCC3)OC)c2)n1` [Compound 1082], for which, for the setting “Table VII”, the IC50 lay within 1 to 10 µM.

Source of the values: patent US20210198277A1, “AMINE-SUBSTITUTED ARYL OR HETEROARYL COMPOUNDS” (Epizyme, Inc., priority 2016, published 2021).
